Measured values from patent US20260265262A1, “CDK2 INHIBITORS AND METHODS OF USING THE SAME” (Cedilla Therapeutics, Inc., priority 2022, published 2026).

Key:
CDK2/Cyclin E1 = CDK2/Cyclin E1 (Homo sapiens, UniProt P24941); test: ADP-Glo Luminescent Kinase Assay (CDK2/E1-37C); format: biochemical; conditions: 0.18 nM CDK2/Cyclin E1, 100 μM ATP, 1.5 μM Histone H1, 37° C., 60 min pre-incubation; read-out: ADPGLO (CDK2/E1-37C): IC50
Method in brief: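 Human CDK2/Cyclin E1 preincubated with inhibitor 60 min at 37 °C, then reacted 90 min at 37 °C with final 0.18 nM enzyme, 100 μM ATP, 1.5 μM Histone H1 in HEPES pH 7.5 buffer. ADP formed read by ADP-Glo luminescence; IC50 from four-parameter fit.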

Kuramochi cells = test: IncuCyte cell proliferation assay; format: cell-based; conditions: Kuramochi cells labeled with mApple-H2B, cell count 0 to 72 hours, 20 μM top concentration; read-out: IncuCyte Kuramochi RB-WT: IC50
Method in brief: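 Kuramochi cells expressing mApple-H2B were treated with a 10-point, ½-log dilution series (top 20 μM). Fluorescent nuclei were counted by IncuCyte imaging at 0 and 72 h. The fold change in cell count was normalized to DMSO wells and fitted to dose-response curves to give […].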

| SMILES | IC50 (CDK2/Cyclin E1) | IC50 (Kuramochi cells) |
| --- | --- | --- |
| C[C@@H](OCC1CCOCC1)[C@H](NC(=O)[C@@H]1CN(C(=O)c2cnn(Cc3ccc(C(F)(F)F)cc3)c2)CC12CN(C(=O)C1(C(F)(F)F)CC1)C2)C(=O)N1CCC(c2ccc(C(=O)O)cc2)CC1 [I-64 1st, 4-(1-(O-((tetrahydro-2H-pyran-4-yl)methyl)-N—((S)-6-(1-(4-(trifluoromethyl)benzyl)-1H-pyrazole-4-carbonyl)-2-(1-(trifluoromethyl)cyclopropane-1-carbonyl)-2,6-diazaspiro[3.4]octane-8-carbonyl)-L-threonyl)piperidin-4-yl)benzoic acid] | < 0.5 µM | > 20 µM |
| C[C@@H](OCC12CCC(CC1)OC2)[C@H](NC(=O)[C@@H]1CN(C(=O)c2cnn(Cc3ccccc3)c2)CC12CN(C(=O)C1(C(F)(F)F)CC1)C2)C(=O)N1CCC(c2nccs2)CC1 [Example I-69, (S)—N-((2S,3R)-3-(2-oxabicyclo[2.2.2]octan-4-ylmethoxy)-1-oxo-1-(4-(thiazol-2-yl)piperidin-1-yl)butan-2-yl)-6-(1-benzyl-1H-pyrazole-4-carbonyl)-2-(1-(trifluoromethyl)cyclopropanecarbonyl)-2,6-diazaspiro[3.4]octane-8-carboxamide] | < 0.5 µM | 0.5 to 5 µM |
| COC(=O)CCNC(=O)[C@@H](NC(=O)[C@@H]1CN(C(=O)c2cnn(Cc3ccc(F)cc3C(F)(F)F)c2)CC12CN(C(=O)C1(C(F)(F)F)CC1)C2)[C@@H](C)OCC12CCC(CC1)OC2 [Example I-110, Methyl 3-((2S,3R)-3-((2-oxabicyclo[2.2.2]octan-4-yl)methoxy)-2-((S)-6-(1-(4-fluoro-2-(trifluoromethyl)benzyl)-1H-pyrazole-4-carbonyl)-2-(1-(trifluoromethyl)cyclopropane-1-carbonyl)-2,6-diazaspiro[3.4]octane-8-carboxamido)butanamido)propanoate] | 0.5 to 5 µM | > 20 µM |
| CNC(=O)C(C)(C)CNC(=O)[C@@H](NC(=O)[C@@H]1CN(C(=O)c2cnn(Cc3ccccc3)c2)CC12CN(C(=O)[C@H]1CC1(C)C)C2)[C@@H](C)OCC1CCCCC1 [Example I-37, (S)-6-(1-benzyl-1H-pyrazole-4-carbonyl)-N-((2S,3R)-3-(cyclohexylmethoxy)-1-((2,2-dimethyl-3-(methylamino)-3-oxopropyl)amino)-1-oxobutan-2-yl)-2-((S)-2,2-dimethylcyclopropane-1-carbonyl)-2,6-diazaspiro[3.4]octane-8-carboxamide] | < 0.5 µM | 5 to 20 µM |
| C[C@@H](OCC1CCCCC1)[C@H](NC(=O)[C@@H]1CN(C(=O)c2cnn(CC3CCCCC3)c2)CC12CN(C(=O)[C@H]1CC1(C)C)C2)C(=O)N1CCC(c2ccc(C(=O)O)cc2)CC1 [Example I-30, 4-(1-(O-(cyclohexylmethyl)-N—((S)-6-(1-(cyclohexylmethyl)-1H-pyrazole-4-carbonyl)-2-((S)-2,2-dimethylcyclopropane-1-carbonyl)-2,6-diazaspiro[3.4]octane-8-carbonyl)-L-threonyl)piperidin-4-yl)benzoic acid] | < 0.5 µM | 0.5 to 5 µM |
| C[C@@H](OCC12CCC(CC1)OC2)[C@H](NC(=O)[C@@H]1CN(C(=O)c2cnn(Cc3ccc(C(F)(F)F)cc3)c2)CC12CN(C(=O)C1(C(F)(F)F)CC1)C2)C(=O)N1CCC(c2ccc(C(=O)O)nc2)CC1 [Example I-92, 5-(1-(O-((2-oxabicyclo[2.2.2]octan-4-yl)methyl)-N—((S)-6-(1-(4-(trifluoromethyl)benzyl)-1H-pyrazole-4-carbonyl)-2-(1-(trifluoromethyl)cyclopropane-1-carbonyl)-2,6-diazaspiro[3.4]octane-8-carbonyl)-L-threonyl)piperidin-4-yl)picolinic acid] | < 0.5 µM | > 20 µM |
| C[C@@H](OCC12CCC(CC1)OC2)[C@H](NC(=O)[C@@H]1CN(C(=O)c2cnc(O)cn2)CC12CN(C(=O)[C@H]1CC1(C)C)C2)C(=O)N1CCC(c2ccc(C(F)(F)F)cc2C(=O)O)CC1 [Example I-10] | < 0.5 µM | > 20 µM |
| COC(=O)C(C)(C)Oc1ccc(C2CCN(C(=O)[C@@H](NC(=O)[C@@H]3CN(C(=O)c4cnn(Cc5ccc(C(F)(F)F)cc5)c4)CC34CN(C(=O)C3(C(F)(F)F)CC3)C4)[C@@H](C)OCC34CCC(CC3)OC4)CC2)cc1C(F)(F)F (stereo in doubt) [Example I-5] | > 10 µM | > 20 µM |
| COC(=O)c1c(F)cc(C2CCN(C(=O)[C@@H](NC(=O)[C@@H]3CN(C(=O)c4cnn(Cc5ccc(C(F)(F)F)cc5)c4)CC34CN(C(=O)C3(C(F)(F)F)CC3)C4)[C@@H](C)OCC34CCC(CC3)OC4)CC2)cc1F (stereo in doubt) [Example I-2] | < 0.5 µM | 0.5 to 5 µM |
| C[C@@H](OCC1CCCCC1)[C@H](NC(=O)[C@@H]1CN(C(=O)c2cnn(Cc3ccccc3)c2)CC12CN(C(=O)[C@H]1CC1(C)C)C2)C(=O)NCCC(=O)NS(C)(=O)=O [Example I-33, (S)-6-(1-benzyl-1H-pyrazole-4-carbonyl)-N-((2S,3R)-3-(cyclohexylmethoxy)-1-((3-(methylsulfonamido)-3-oxopropyl)amino)-1-oxobutan-2-yl)-2-((S)-2,2-dimethylcyclopropane-1-carbonyl)-2,6-diazaspiro[3.4]octane-8-carboxamide] | < 0.5 µM | > 20 µM |
| C[C@@H](OCC12CCC(CC1)OC2)[C@H](NC(=O)[C@@H]1CN(C(=O)c2cnn(Cc3ccccc3C(=O)O)c2)CC12CN(C(=O)C1(C(F)(F)F)CC1)C2)C(=O)N1CCC(c2nccs2)CC1 [Example I-88, 2-((4-((S)-8-(((2S,3R)-3-(2-oxabicyclo[2.2.2]octan-4-ylmethoxy)-1-oxo-1-(4-(thiazol-2-yl)piperidin-1-yl)butan-2-yl)carbamoyl)-2-(1-(trifluoromethyl)cyclopropanecarbonyl)-2,6-diazaspiro[3.4]octane-6-carbonyl)-1H-pyrazol-1-yl)methyl)benzoic acid] | < 0.5 µM | > 20 µM |
| CCOC(=O)CN(CC1CCCCC1)[C@H]1CCCN(C(=O)[C@@H]2CN(C(=O)c3cncs3)CC23CN(C(=O)[C@H]2CC2(C)C)C3)C1 [Example I-74] | 5 to 10 µM | > 20 µM |
| N#Cc1ccc(Cn2cc(C(=O)N3CC(C(=O)N[C@H](COCC45CCC(CC4)OC5)c4ccc(C(=O)O)cc4)C4(C3)CN(C(=O)C3(C(F)(F)F)CC3)C4)cn2)cc1 (stereo partly drawn) [Example I-19] | > 10 µM | > 20 µM |
| C[C@@H](OCC12CCC(CC1)OC2)[C@H](NC(=O)[C@@H]1CN(C(=O)c2cnc(O)cn2)CC12CN(C(=O)C1(C(F)(F)F)CC1)C2)C(=O)N1CCC(c2ccc(C(F)(F)F)c(C(=O)O)c2)CC1 [Example I-63] | < 0.5 µM | > 20 µM |
| COc1ccc(S(=O)(=O)NC(=O)[C@@H](NC(=O)[C@@H]2CN(C(=O)c3cnn(Cc4ccccc4)c3)CC23CN(C(=O)[C@H]2CC2(C)C)C3)[C@@H](C)OCC2CCCCC2)cc1 [Example I-22] | < 0.5 µM | 0.5 to 5 µM |
| C[C@@H](OCC1CCCCC1)[C@H](NC(=O)[C@@H]1CN(C(=O)c2cnn(Cc3ccccc3)c2)CC12CN(C(=O)[C@H]1CC1(C)C)C2)C(=O)N1CCN(c2ccc(C(=O)O)cc2)CC1 [Example I-28] | < 0.5 µM | 0.5 to 5 µM |
| Cc1cc(C2CCN(C(=O)[C@@H](NC(=O)[C@@H]3CN(C(=O)c4cnn(Cc5ccc(C(F)(F)F)cc5)c4)CC34CN(C(=O)C3(C(F)(F)F)CC3)C4)[C@@H](C)OCC34CCC(CC3)OC4)CC2)cc(C(F)(F)F)c1OCC(=O)O [Example I-104] | < 0.5 µM | > 20 µM |
| Cc1oc(=O)oc1COC(=O)C(C)(C)CNC(=O)[C@@H](NC(=O)[C@@H]1CN(C(=O)c2cnn(Cc3ccccc3)c2)CC12CN(C(=O)[C@H]1CC1(C)C)C2)[C@@H](C)OCC1CCCCC1 [Example I-32, (5-methyl-2-oxo-1,3-dioxol-4-yl)methyl 3-((2S,3R)-2-((S)-6-(1-benzyl-1H-pyrazole-4-carbonyl)-2-((S)-2,2-dimethylcyclopropane-1-carbonyl)-2,6-diazaspiro[3.4]octane-8-carboxamido)-3-(cyclohexylmethoxy)butanamido)-2,2-dimethylpropanoate] | < 0.5 µM | 5 to 20 µM |
| C[C@@H](OCC12CCC(CC1)OC2)[C@@H](COC1CCC(c2nccs2)CC1)NC(=O)[C@@H]1CN(C(=O)c2cnn(Cc3ccc(C(F)(F)F)cc3)c2)CC12CN(C(=O)C1(C(F)(F)F)CC1)C2 (stereo partly drawn) [Example I-107, (S)—N-((2R,3R)-3-(2-oxabicyclo[2.2.2]octan-4-ylmethoxy)-1-((4-(thiazol-2-yl)cyclohexyl)oxy)butan-2-yl)-6-(1-(4-(trifluoromethyl)benzyl)-1H-pyrazole-4-carbonyl)-2-(1-(trifluoromethyl)cyclopropanecarbonyl)-2,6-diazaspiro[3.4]octane-8-carboxamide] | 0.5 to 5 µM | 5 to 20 µM |
| COC(=O)c1ccc([C@@H](COCC23CCC(CC2)OC3)NC(=O)C2CN(C(=O)c3cnn(Cc4ccc(C#N)cc4)c3)CC23CN(C(=O)C2(C(F)(F)F)CC2)C3)cc1 (stereo partly drawn) [Example I-20] | 5 to 10 µM | > 20 µM |
| COC(=O)c1ccc(C2CCN(C(=O)[C@@H](NC(=O)[C@@H]3CN(C(=O)c4cnn(Cc5ccc(C(F)(F)F)cc5)c4)CC34CN(C(=O)C3(C(F)(F)F)CC3)C4)[C@@H](C)OCC34CCC(CC3)OC4)CC2)cc1 [Example I-13] | < 0.5 µM | 0.5 to 5 µM |
